The values below come from US6455587B1 (priority 2000, dated 2002).

In this test the target is T1, recombinant HIV-1 protease (Human immunodeficiency virus type 1 group M subtype B, UniProt P04585).
T1 construct: recombinant HIV-1 protease (final concentration 2.18 nM) purchased from Bachem Bioscience; purchased Bachem Bioscience
Put plainly: Enzymatic fluorometric (FRET) assay for determining the inhibition constant (Ki) against HIV protease. It is filed as biochemical. The following applies: fluorometric FRET assay, recombinant HIV-1 protease, pH 4.7, 31° C.; read-out: Ki. In a few lines: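 FRET substrate (EDANS/DABCYL) cleavage followed at 31° C., ex 340/em 485 nm. Initial velocity recorded over 4 min, then inhibitor added at several concentrations and rate read another 4 min. Ki derived from v0 and vi via Henderson equation using [S] and Km.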
As usually defined, the Ki is the dissociation constant of the complex between target and ligand, obtained from inhibition or displacement. Regarding `Cc1ccc(S(=O)(=O)N(CC(C)C)[C@@H](CCCCNC(=O)CCc2ccc(O)cc2)C(=O)O)cc1` [Compound 126, Nα-Isobutyl-Nα-(4-methylbenzenesulfonyl)-Nε-(4-hydroxydihydrocinnamoyl)-L-lysine], the Ki was above 300 nM.
As for `O=C(N[C@@H](CCCCNS(=O)(=O)c1ccc(I)cc1)C(=O)O)OCC1c2ccccc2-c2ccccc21` [Compound 64, Nε-(4-Iodobenzenesulfonyl)-Nα-(9-fluorenylmethoxycarbonyl)-L-lysine], the figure is 19200 nM; as for “Nα-(4-Bromobenzenesulfonyl)-Nε-(9-fluorenylmethoxycarbonyl)-L-lysine [Compound 66]”, above 6500 nM.
With `CC(C)CN([C@@H](CCCCNC(=O)COc1ccccc1)C(=O)O)S(=O)(=O)c1ccc([N+](=O)[O-])cc1` [Compound 160, Nα-Isobutyl-Nα-(4-nitrobenzenesulfonyl)-Nε-phenoxyacetyl-L-lysine] the figure was 24.5 nM; with `Cc1ccc(S(=O)(=O)N(CC(C)C)[C@@H](CCCCNC(=O)c2c[nH]c3ccccc23)C(=O)O)cc1` [Compound 87], above 1250 nM.
With `CC(C)CN(C(=O)c1ccccc1)[C@@H](CCCCNC(=O)OCC1c2ccccc2-c2ccccc21)C(=O)O` [Compound 46, Nα-Isobutyl-Nα-benzoyl-Nε-(9-fluorenylmethoxycarbonyl)-L-lysine], the Ki was above 100 nM.
`Cc1cc(C)c(S(=O)(=O)N(CC(C)C)[C@@H](CCCCNC(=O)OCC2c3ccccc3-c3ccccc32)C(=O)O)c(C)c1` [Compound 42, Nα-Isobutyl-Nα-(2,4,6-trimethylbenzenesulfonyl)-Nε-(9-fluorenylmethoxycarbonyl)-L-lysine]: the Ki was above 100 nM.
Turning to `CC(C)CN([C@@H](CCCCNC(=O)CCc1ccccc1)C(=O)O)S(=O)(=O)c1ccc(N)cc1` [Compound 158, Nα-Isobutyl-Nα-(4-aminobenzenesulfonyl)-Nε-dihydrocinnamoyl-L-lysine], the Ki was above 300 nM.
With `CC(C)CN([C@@H](CCCCNC(=O)OCc1ccccc1)C(=O)OCc1ccccc1)S(=O)(=O)c1ccc([N+](=O)[O-])cc1` [Compound 78, Nα-Isobutyl-Nα-(4-nitrobenzenesulfonyl)-Nε-benzyloxycarbonyl-L-lysine Benzyl Ester] the figure was above 1250 nM.
With `Cc1ccc(S(=O)(=O)N(CC(C)C)[C@@H](CCCCNC(=O)CCc2c[nH]c3ccccc23)C(=O)O)cc1` [Compound 89] the figure was 6.9 nM; with `O=C(N[C@@H](CNS(=O)(=O)c1ccc(Br)cc1)C(=O)O)OCC1c2ccccc2-c2ccccc21` [Compound 18, (S)-2-(9-Fluorenylmethoxycarbonylamino)-3-(4-bromobenzenesulfonylamino)-propanoic Acid], 75000 nM.
Regarding `Cc1ccc(S(=O)(=O)N(CC(C)C)C(CCCCNC(=O)CC2c3ccccc3-c3ccccc32)C(=O)O)cc1` (stereo not shown) [Compound 84], the Ki came out at 89.7 nM.
“Nα-Isobutyl-Nα-(4-methylbenzenesulfonyl)-Nε-phenoxyacetyl-L-lysine [Compound 203]”: the Ki was found to be 16000 nM.
